# Laboratory results from patent US10485769B2, “Cholesteryl ester transfer protein (CETP) inhibition in the treatment of cancer” (KING ABDULLAH UNIVERSITY OF SCIENCE AND TECHNOLOGY, priority 2015, dated 2019).
# Tests used:
# CETP = CETP activity in mice plasma, CETP activity assay kit; format: in vivo; details: 5 mg/kg AP, compared to Vehicle
# Description: FIG. 7: Levels of CETP mRNA in tumor (A) and protein in serum (B) in mice tumor samples after treatment with 2 mg/kg PL or 5 mg/kg AP were determined with the RT-PCR and western blotting, respectively. Fold change in expression of serum protein was determined using densitometry analysis of western blots using ImageJ (C). CETP activity in serum was estimated using CETP activity kit (name of kit/manufacturer) (D). Values represent the means±SD of three independent experiments. * where p≤0.05, and ** where p≤0.005.
# The activity of CETP in mice plasma was determined using the CETP activity assay kit according to the manufacturer's instructions (FIG. 7D). CETP activity was […] in AP treated mice compared to Vehicle. This observation was in accordance with the CETP protein expression levels observed in Vehicle, AP and PL test groups. The expression levels of CETP have been reported to be linear with its activity.
# BJ cells = assay: Viability of normal cells, AP combined with chemotherapeutic drugs; format: cell-based, human
# Description: (§1) FIG. 13: The effect of AP on viability of BJ and MCF-7 cells when combined with different doses of various chemotherapeutic drugs for 24 h. Values represent the means±SD of three replicates.
# (§2) We anticipated that AP might have the potential to reduce toxicity and increase efficacy of known chemotherapeutic drugs which may enhance the usage of these drugs at lower concentrations with increased cancer killing effects. To test this preliminary, we treated normal (BJ) and Cancer (MCF-7) cells with different chemotherapeutic drugs as summarized in FIG. 13.
# (§3) It is also clear from data that the cancer killing effect achieved using 20 μM tamoxifen was possible to achieve using a combination of AP with 10 μM tamoxifen while enhancing the viability of normal cells at the same time.
# MCF-7 cells [1] = assay: Viability of cancer cells, AP combined with chemotherapeutic drugs; format: cell-based, human; details: 24 h
# Description: as §1, §2, §3
# MCF-7 cells [2] = details: as compared to BJ and triple negative BT20 cells; previously shown [1]; cited from earlier work
smiles,measurement,setting,value
"CC(=O)Oc1cccc2c1C(=O)C=C(C)C2=O [AP, Acetyl Plumbagin]",CETP activity in plasma,CETP,elevated
same,increase of cell viability of normal cells,"BJ cells; AP in combination with 5-Florouracil, 24 h",7%
same,increase of viability of normal cells,"BJ cells; AP with 10 μM of tamoxifen, 24 h",7%
same,rescue of normal cells from toxic effects of tamoxifen,BJ cells; AP with tamoxifen at higher concentrations,unable to rescue
same,reduction of viability of cancer cells,MCF-7 cells [1]; AP in combination with 5-Florouracil,76%
same,reduction of viability of cancer cells,MCF-7 cells [1]; AP with 10 μM of tamoxifen,50%
same,selectivity against MCF-7,MCF-7 cells [2],selective activity
